# In patent publication US11111220B2, “Propanamine derivatives for treating pain and pain related conditions” (ESTEVE PHARMACEUTICALS, S.A., priority 2017, dated 2021):
# Molecular target: Human α2δ-1 Subunit of Cav2.2 Calcium Channel (Homo sapiens, UniProt P54289)
# Test: Binding assay to human α2δ-1 subunit of Cav2.2 calcium channel ([3H]-Gabapentin)
# Conditions: Table 1; human α2δ-1 enriched membranes, 15 nM [3H]-Gabapentin; read-out: Ki(nM) alpha2delta Hum
# Procedure: Binding Assay to Human α2δ-1 Subunit of Cav2.2 Calcium Channel.
# Human α2δ-1 enriched membranes (2.5 μg) were incubated with 15 nM of radiolabeled [3H]-Gabapentin in assay buffer containing Hepes-KOH 10 mM, pH 7.4.
# NSB (non specific binding) was measured by adding 10 μM pregabalin. The binding of the test compound was measured in five different concentrations. After 60 min incubation at 27° C., binding reaction was terminated by filtering through Multiscreen GF/C (Millipore) presoaked in 0.5% polyethyleneimine in Vacuum Manifold Station, followed by 3 washes with ice-cold filtration buffer containing 50 mM Tris-HCl, pH 7.4.
# Filter plates were dried at 60° C. for 1 hour and 30 μl of scintillation cocktail were added to each well before radioactivity reading.
# Readings were performed in a Trilux 1450 Microbeta radioactive counter (Perkin Elmer).
# Sequence of Human α2δ-1 Subunit of Cav2.2 Calcium Channel (P54289 25-1103): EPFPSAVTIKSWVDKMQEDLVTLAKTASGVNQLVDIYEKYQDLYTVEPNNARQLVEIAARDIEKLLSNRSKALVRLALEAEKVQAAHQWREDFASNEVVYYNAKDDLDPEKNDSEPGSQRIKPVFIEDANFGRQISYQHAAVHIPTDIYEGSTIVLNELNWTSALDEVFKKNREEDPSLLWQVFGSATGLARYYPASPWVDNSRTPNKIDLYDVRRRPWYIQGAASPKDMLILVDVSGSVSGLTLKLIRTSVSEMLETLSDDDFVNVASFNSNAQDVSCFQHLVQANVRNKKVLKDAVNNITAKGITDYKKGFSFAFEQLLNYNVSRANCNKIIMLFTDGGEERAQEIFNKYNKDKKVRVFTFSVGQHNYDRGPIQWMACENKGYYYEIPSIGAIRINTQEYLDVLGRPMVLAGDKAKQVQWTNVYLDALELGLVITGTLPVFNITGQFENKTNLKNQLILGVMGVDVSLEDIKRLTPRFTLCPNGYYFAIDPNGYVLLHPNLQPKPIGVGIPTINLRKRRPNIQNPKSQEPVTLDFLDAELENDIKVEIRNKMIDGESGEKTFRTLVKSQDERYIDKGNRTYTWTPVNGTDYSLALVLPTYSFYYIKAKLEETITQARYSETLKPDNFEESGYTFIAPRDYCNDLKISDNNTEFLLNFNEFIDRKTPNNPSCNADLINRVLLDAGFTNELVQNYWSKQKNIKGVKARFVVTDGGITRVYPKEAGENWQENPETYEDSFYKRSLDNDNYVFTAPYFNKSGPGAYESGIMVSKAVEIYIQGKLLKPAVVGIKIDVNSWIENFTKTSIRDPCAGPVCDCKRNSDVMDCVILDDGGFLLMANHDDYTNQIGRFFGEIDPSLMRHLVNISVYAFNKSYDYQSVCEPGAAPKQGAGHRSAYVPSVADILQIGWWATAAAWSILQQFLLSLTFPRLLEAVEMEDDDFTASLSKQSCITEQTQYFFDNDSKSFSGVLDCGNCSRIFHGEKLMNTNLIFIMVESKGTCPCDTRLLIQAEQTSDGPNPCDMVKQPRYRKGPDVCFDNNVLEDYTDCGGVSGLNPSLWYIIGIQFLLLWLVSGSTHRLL
row,Ki [nM],Structure (SMILES)
1,100 to 500,"CCN(Cc1ccccc1)Cc1cccc(OC(CCNC)c2cccs2)c1 (centres unmarked) [Example 1, 3-(3-((Benzyl(ethyl)amino)methyl)phenoxy)-N-methyl-3-(thiophen-2-yl)propan-1-amine]"
2,100 to 500,"CNCCC(Oc1cccc(CNC)c1)c1cccs1 (centres unmarked) [Example 3, N-methyl-3-(3-((methylamino)methyl)phenoxy)-3-(thiophen-2-yl)propan-1-amine]"
3,100 to 500,"CNCCC(Oc1cccc(CN(C)C)c1)c1cccs1 (centres unmarked) [Example 4, 3-(3-((Dimethylamino)methyl)phenoxy)-N-methyl-3-(thiophen-2-yl)propan-1-amine]"
4,100 to 500,"CCNCc1cccc(OC(CCNC)c2cccs2)c1 (centres unmarked) [Example 5, 3-(3-((Ethylamino)methyl)phenoxy)-N-methyl-3-(thiophen-2-yl)propan-1-amine]"
5,≥ 3000,"CNCCC(Oc1cccc(C(=O)NCc2ccccn2)c1)c1cccs1 (centres unmarked) [Example 7, 3-(3-(Methylamino)-1-(thiophen-2-yl)propoxy)-N-(pyridin-2-ylmethyl)benzamide]"
6,500 to 3000,"CNCCC(Oc1cccc(C(=O)Nc2cccnc2)c1)c1cccs1 (centres unmarked) [Example 8, 3-(3-(Methylamino)-1-(thiophen-2-yl)propoxy)-N-(pyridin-3-yl)benzamide]"
7,500 to 3000,"CNCCC(Oc1cccc(C(=O)Nc2cccc(-c3nnc(C)o3)c2)c1)c1cccs1 (centres unmarked) [Example 9, N-(3-(5-methyl-1,3,4-oxadiazol-2-yl)phenyl)-3-(3-(methylamino)-1-(thiophen-2-yl)propoxy)benzamide]"
8,500 to 3000,"CNCCC(Oc1cccc(C(=O)NCc2ccccc2)c1)c1cccs1 (centres unmarked) [Example 10, N-benzyl-3-(3-(methylamino)-1-(thiophen-2-yl)propoxy)benzamide]"
9,500 to 3000,"CNCCC(Oc1cccc(C(=O)Nc2ccccc2CN(C)C)c1)c1cccs1 (centres unmarked) [Example 11, N-(2-((dimethylamino)methyl)phenyl)-3-(3-(methylamino)-1-(thiophen-2-yl)propoxy)benzamide]"
10,500 to 3000,"CNCCC(Oc1cccc(C(=O)Nc2ccccc2N(C)C)c1)c1cccs1 (centres unmarked) [Example 12, N-(2-(dimethylamino)phenyl)-3-(3-(methylamino)-1-(thiophen-2-yl)propoxy)benzamide]"
11,≥ 3000,"CNCCC(Oc1cccc(C(=O)NC)c1)c1ccccc1 (centres unmarked) [Example 16, N-methyl-3-(3-(methylamino)-1-phenylpropoxy)benzamide]"
12,≥ 3000,"CCNC(=O)c1cccc(OC(CCNC)c2ccccc2)c1 (centres unmarked) [Example 19, N-ethyl-3-(3-(methylamino)-1-phenylpropoxy)benzamide]"
13,≥ 3000,"CCNc1ccc(NC(=O)c2cccc(OC(CCNC)c3ccccc3)c2)cn1 (centres unmarked) [Example 21, N-(6-(ethylamino)pyridin-3-yl)-3-(3-(methylamino)-1-phenylpropoxy)benzamide]"
14,≥ 3000,"CNCCC(Oc1cccc(N(C)C(=O)c2ccccc2)c1)c1ccccc1 (centres unmarked) [Example 23, N-methyl-N-(3-(3-(methylamino)-1-phenylpropoxy)phenyl) benzamide]"
15,≥ 3000,"CNCCC(Oc1cccc(N(C)C(C)=O)c1)c1ccccc1 (centres unmarked) [Example 24, N-methyl-N-(3-(3-(methylamino)-1-phenylpropoxy)phenyl)acetamide]"
16,≥ 3000,"CCCC(=O)N(C)c1cccc(OC(CCNC)c2ccccc2)c1 (centres unmarked) [Example 25, N-methyl-N-(3-(3-(methylamino)-1-phenylpropoxy)phenyl)butyramide]"
17,≥ 3000,"CNCCC(Oc1cccc(N(C)C(=O)c2cccnc2)c1)c1ccccc1 (centres unmarked) [Example 26, N-methyl-N-(3-(3-(methylamino)-1-phenylpropoxy)phenyl)nicotinamide]"
18,≥ 3000,"CCNc1ncc(C(=O)N(C)c2cccc(OC(CCNC)c3ccccc3)c2)c(N2CCCC2)n1 (centres unmarked) [Example 29, 2-(Ethylamino)-N-methyl-N-(3-(3-(methylamino)-1-phenylpropoxy)phenyl)-4-(pyrrolidin-1-yl)pyrimidine-5-carboxamide]"
19,500 to 3000,"CCNc1ncc(C(=O)N(C)c2cccc(OC(CCNC)c3cccs3)c2)c(N2CCCC2)n1 (centres unmarked) [Example 30, 2-(Ethylamino)-N-methyl-N-(3-(3-(methylamino)-1-(thiophen-2-yl)propoxy)phenyl)-4-(pyrrolidin-1-yl)pyrimidine-5-carboxamide]"
20,≥ 3000,"CNCCC(OCc1cccc(N(C)C(=O)c2ccccc2)c1)c1ccccc1 (centres unmarked) [Example 31, N-methyl-N-(3-((3-(methylamino)-1-phenylpropoxy)methyl)phenyl)benzamide]"
21,≥ 3000,"CNCCC(OCc1cccc(N(C)C(=O)c2cccnc2)c1)c1ccccc1 (centres unmarked) [Example 32, N-methyl-N-(3-((3-(methylamino)-1-phenylpropoxy)methyl)phenyl)nicotinamide]"

row,Ki [nM],Structure (SMILES)
1,≥ 3000,"CNCCC(OCc1cccc(N(C)C(=O)c2cnc(OC)nc2)c1)c1ccccc1 (centres unmarked) [Example 33, 2-Methoxy-N-methyl-N-(3-((3-(methylamino)-1-phenylpropoxy)methyl)phenyl)pyrimidine-5-carboxamide]"
2,≥ 3000,"CNCCC(OCc1cccc(N(C)C(=O)c2cncnc2)c1)c1ccccc1 (centres unmarked) [Example 34, N-methyl-N-(3-((3-(methylamino)-1-phenylpropoxy)methyl)phenyl)pyrimidine-5-carboxamide]"
3,≥ 3000,"CNCCC(OCc1cccc(N(C)C(=O)c2cnc(SC)nc2)c1)c1ccccc1 (centres unmarked) [Example 35, N-methyl-N-(3-((3-(methylamino)-1-phenylpropoxy)methyl)phenyl)-2-(methylthio)pyrimidine-5-carboxamide]"
4,≥ 3000,"CNCCC(OCc1cccc(N(C)C(=O)c2ccccn2)c1)c1ccccc1 (centres unmarked) [Example 36, N-methyl-N-(3-((3-(methylamino)-1-phenylpropoxy)methyl)phenyl)picolinamide]"
5,500 to 3000,"CCNc1ncc(C(=O)N(C)c2cccc(COC(CCNC)c3ccccc3)c2)c(N2CCCC2)n1 (centres unmarked) [Example 37, 2-(Ethylamino)-N-methyl-N-(3-((3-(methylamino)-1-phenylpropoxy)methyl)phenyl)-4-(pyrrolidin-1-yl)pyrimidine-5-carboxamide]"
6,≥ 3000,"CNCCC(OCc1cccc(NC(=O)c2cccnc2)c1)c1ccccc1 (centres unmarked) [Example 40, N-(3-((3-(methylamino)-1-phenylpropoxy)methyl)phenyl)nicotinamide]"
7,≥ 3000,"CNCCC(OCc1cccc(NC(=O)c2cncnc2)c1)c1ccccc1 (centres unmarked) [Example 42, N-(3-((3-(methylamino)-1-phenylpropoxy)methyl)phenyl)pyrimidine-5-carboxamide]"
8,≥ 3000,"CNCCC(OCc1cccc(NC(=O)c2cnc(SC)nc2)c1)c1ccccc1 (centres unmarked) [Example 44, N-(3-((3-(methylamino)-1-phenylpropoxy)methyl)phenyl)-2-(methylthio)pyrimidine-5-carboxamide]"
9,500 to 3000,"CCNc1ncc(C(=O)Nc2cccc(COC(CCNC)c3ccccc3)c2)c(N2CCCC2)n1 (centres unmarked) [Example 45, 2-(Ethylamino)-N-(3-((3-(methylamino)-1-phenylpropoxy)methyl)phenyl)-4-(pyrrolidin-1-yl)pyrimidine-5-carboxamide]"
10,≥ 3000,"CNCCC(OCc1cccc(NC(=O)c2ccccc2N(C)C)c1)c1cccs1 (centres unmarked) [Example 47, 2-(Dimethylamino)-N-(3-((3-(methylamino)-1-(thiophen-2-yl)propoxy)methyl)phenyl)benzamide]"
11,500 to 3000,"CCNc1ncc(C(=O)Nc2cccc(COC(CCNC)c3cccs3)c2)c(N2CCCC2)n1 (centres unmarked) [Example 49, 2-(Ethylamino)-N-(3-((3-(methylamino)-1-(thiophen-2-yl)propoxy)methyl)phenyl)-4-(pyrrolidin-1-yl)pyrimidine-5-carboxamide]"
12,500 to 3000,"CCNc1ncc(C(=O)Nc2cccc(OC(CCNC)c3cccs3)c2)c(N2CCCC2)n1 (centres unmarked) [Example 51, 2-(Ethylamino)-N-(3-(3-(methylamino)-1-(thiophen-2-yl)propoxy)phenyl)-4-(pyrrolidin-1-yl)pyrimidine-5-carboxamide]"
13,≥ 3000,"CNCCC(OCc1cccc(NCc2ccccc2)c1)c1ccccc1 (centres unmarked) [Example 52, N-benzyl-3-((3-(methylamino)-1-phenylpropoxy)methyl)aniline]"
14,≥ 3000,"CNCCC(OCc1cccc(NCc2cncnc2)c1)c1ccccc1 (centres unmarked) [Example 53, 3-((3-(Methylamino)-1-phenylpropoxy)methyl)-N-(pyrimidin-5-ylmethyl)aniline]"
15,≥ 3000,"CN(C)CCC(OCc1cccc(NC(=O)c2ccccc2)c1)c1cccs1 (centres unmarked) [Example 54, N-(3-((3-(dimethylamino)-1-(thiophen-2-yl)propoxy)methyl)phenyl) benzamide]"
16,≥ 3000,"CN(C)CCC(OCc1cccc(NC(=O)c2ccccc2N(C)C)c1)c1cccs1 (centres unmarked) [Example 55, 2-(Dimethylamino)-N-(3-((3-(dimethylamino)-1-(thiophen-2-yl)propoxy)methyl)phenyl)benzamide]"
17,≥ 3000,"CCN(Cc1cccc(OC(CCNC)c2cccs2)c1)C(=O)c1ccccc1 (centres unmarked) [Example 56, N-ethyl-N-(3-(3-(methylamino)-1-(thiophen-2-yl)propoxy)benzyl) benzamide]"
18,≥ 3000,"CNCCC(OCc1cccc(N(Cc2ccccc2)C(C)=O)c1)c1ccccc1 (centres unmarked) [Example 57, N-benzyl-N-(3-((3-(methylamino)-1-phenylpropoxy)methyl)phenyl) acetamide]"
19,≥ 3000,"CNCCC(OCc1cccc(Nc2ncccn2)c1)c1ccccc1 (centres unmarked) [Example 59, N-(3-((3-(methylamino)-1-phenylpropoxy)methyl)phenyl)pyrimidin-2-amine]"
20,≥ 3000,"CCNc1ncc(C(=O)N(C)c2cccc(OC(CCNC)c3ccccc3)c2)cn1 (centres unmarked) [Example 60, 2-(Ethylamino)-N-methyl-N-(3-(3-(methylamino)-1-phenylpropoxy)phenyl)pyrimidine-5-carboxamide]"
